Bridges are numbered along the chain shown (N, C = ends). Primed or numbered codes have the meaning given here. Where no end group is shown, it is not given here. [ ]: non-standard residue; d: D form. mp4″ = 4 mini PEG linker (mini-PEG spacer); PEG10′ = polyethylene glycol 10 linker; minipeg = minipeg spacer; Dap = NC[C@H](N)C(=O)O
Legend:
[1] = tested on: Swiss Webster fracture-bearing mice (healed femur); assay: postmortem 4 point bend of the healed femur; format: in vivo
Excerpt: All in vivo data included herein are from Swiss Webster mice. All mice received an osteotomy on their right femur and received subcutaneous drug administration daily for either 2,3 or 4 weeks, or 17 days, as indicated, for each compound. 1× concentration represents 1 nmol/day, 10× represents 10 nmol/day, 100× represents 100 nmol/day most studies have an n of 5.
The term “Peak Load” means a postmortem 4 point bend of the healed femur. Peak load represents the maximum force the healed femur withstood before it refractured.
The targeted conjugates were synthesized using standard Fmoc solid-phase peptide synthesis, as described above. To ensure the conjugates' activity, mouse pre-osteoblast ([…]) cells were treated with the targeted and untargeted compounds for three days at concentrations from 1 pM to 100 nM. After three days of treatment, the cells were harvested, and the RNA was purified from the cells. Expression levels of ALP, RUNx2 (transcription factor for osteoblast differentiation), osterix (OSX), osteopontin (OPN), collagen 1A (Col-1A), OPG, RANKL, sclerostin gene (SOST), and OC were quantified via quantitative reverse transcription polymerase chain reaction (RT-qPCR). Once the biological activity of the conjugates was confirmed, they were tested in vivo in a fracture model. Aseptic surgical techniques were used to place a 23-gage needle as in intramedullary nail in the femur of anesthetized, 12-week-old Swiss Webster mice for internal fixation before fracture. Femur fractures were induced using a drop weight fracture device from RISystem. The mice received buprenorphine for three days post fracture. The mice were dosed subcutaneously each day for three weeks or 17 days. Fracture healing was assessed using microCT (Scanco Medical Ag). Morphometric parameters were quantified in the 100 widest slices of the fracture callus. Trabecular thickness (Tb.Th.), trabecular spacing (Tb.Sp.), total volume (TV), and volume of calcified callus (BV) were calculated. Fractured femurs were tested for strength in a four-point bend to failure using an Electro Force TestBench (TA Instruments). Lower supports were 10 mm apart on the anterior face of the femur in contact with the proximal and distal diaphysis. Upper supports were 4 mm apart and spanned the entire fracture callus on the diaphysis. Force was applied from the posterior face of the femur with a displacement rate of 0.3 mm/sec. Peak load, yield load, stiffness, displacement post yield, work to fracture, and deformation data were generated. Statistical analysis was performed using a two-way analysis of variance (ANOVA) and a Tukey post-hoc analysis with significance reported at the 95% confidence level. All animal experiments were performed in accordance with protocols approved by Purdue University's Institutional Animal Care and Use Committee (IACUC).

[2] = tested on: Swiss Webster fracture-bearing mice (fracture callus); assay: micro CT of the fracture callus in the femur fracture model; format: in vivo
[3] = 2 weeks, 1, 10 and 100 nmol/day
[4] = 3 weeks, 1, 10 and 100 nmol daily s.c., n=5
[5] = 3 weeks, 0.1, 1 and 10 nmol daily s.c.
[6] = 3 weeks, 1 and 10 nmol daily s.c., n=10
[7] = 4 weeks, 1, 10 and 100 nmol/day
[8] = 3 weeks, 0.1, 1 and 10 nmol daily s.c., n=5
[9] = 17 days, 0.1, 1 and 10 nmol daily s.c., n=5
[10] = 17 days, 1, 10 and 100 nmol daily s.c., n=5

BFP-D10: SEQ ID NO: 1, bone forming peptide conjugated with 10 aspartate acids: DDDDDDDDDDGQGFSYPYKAVFSTQ (BFP D10)
Peak load of fractured femurs ([1]; after 2 weeks, 100 nmol/day (100×), compared to PBS): obtained the maximum peak load
BV/TV [2, 3]: dose dependent manner
TbSp [2, 3]: dose dependent manner

CBD_MP4_(D)E10: SEQ ID NO: 32, 1-28 of osteopontin followed by 4 peg 2 spacers followed by ten d glutamic acids (HNGVFKYRPRYYLYKHAYFYPHLKRFPVQEEEEEEEEEE; 4 PEG2 spacers; D-glutamic acids; CBD _MP4_e10)
Work to fracture [1, 4]: improves bone strength
BV/TV [2, 4]: raises bone density
Tbth (trabecular thickness) [2, 4]: raises bone quality

CBM D10: SEQ ID NO: 9, collagen binding motif of osteopontin conjugated with 10 aspartate acids
BV/TV [2, 5]: dose dependent manner

CBM(1-19)_D10: SEQ ID NO: 31, truncated version (1-19) of the collagen binding motif of human osteopontin targeted by D10 (HDDDDDDDDDDGLRSKSKKFRRPDIQYPDA; CBM(1-19)-D10 collagen binding motif)
Max load (peak load) [1, 4]: improves bone strength
BV/TV [2, 4]: raises bone density
Tbth (trabecular thickness) [2, 4]: raises bone quality

CNP D10: SEQ ID NO: 7, C-type Natriuretic peptide conjugated with 10 aspartate acids (HDDDDDDDDDDGLSKGCFGLKLDRIGSMSGLGC; disulfide 17-33)
BV/TV ([2]; 4 weeks, 1 and 10 nmol/day): dose dependent manner

CTC_mp4_(D)E10: SEQ ID NO: 21, CTC linked via 4 minipegs to 10 (D) glutamic acids (H[dE][dE][dE][dE][dE][dE][dE][dE][dE][dE][minipeg][minipeg][minipeg][minipeg]IAGVGGEKSGGF)
Max load (peak load) [1, 6]: raises bone strength
Work to fracture [1, 6]: raises bone strength
BV/TV [2, 6]: raises bone density

CTC_peg10_(D)E10: SEQ ID NO: 20, chemotactic collagen fragment CTC linked via polyethylene glycol 10 to 10 (D) glutamic acids (H[dE][dE][dE][dE][dE][dE][dE][dE][dE][dE][PEG10′]IAGVGGEKSGGF)
Max load (peak load) [1, 4]: improves bone strength
BV/TV [2, 5]: raises bone density

DGEA_mp4_(D)E10: SEQ ID NO: 24, DGEA with Serine and Proline on C terminus, 4 minipeg spacers and ten d glutamic acids (H[dE][dE][dE][dE][dE][dE][dE][dE][dE][dE][minipeg][minipeg][minipeg][minipeg]DGEASP)
Max load (peak load) [1, 4]: raises bone strength
Work to fracture [1, 4]: raises bone strength
BV (bone volume) [2, 4]: raises bone mineralization
BV/TV [2, 4]: raises bone density

Ghrelin-D10: SEQ ID NO: 5, Ghrelin D10 with Ser-3 replaced with diaminopropionic acid (HG[Dap]FLSPEHQKAQQRKESKKPPAKLQPRDDDDDDDDDD; ends and bridges not checked)
BV/TV [2, 7]: dose dependent manner

IKVAV_mp4_(D)E10: SEQ ID NO: 26, laminin fragment IKVAV conjugated via 4 minipegs with 10 glutamic acids (H[dE][dE][dE][dE][dE][dE][dE][dE][dE][dE][minipeg][minipeg][minipeg][minipeg]GQAASIKVAVSADR)
Max load (peak load) [1, 8]: raises bone strength
Work to fracture [1, 8]: raises bone strength
BV/TV [2, 5]: raises bone density
BV (bone volume) [2, 8]: raises bone mineralization

LN2_P3_mp4_(D)E10: SEQ ID NO: 27, laminin a2 motif DLTIDDSYWYRI with N terminally attached minipeg 4 spacer and targeting ligand (H[dE][dE][dE][dE][dE][dE][dE][dE][dE][dE][mp4″]DLTIDDSYWYRI)
Max load (peak load) [1, 9]: raises bone strength
Work to fracture [1, 9]: raises bone strength
BV (bone volume) [2, 9]: raises bone mineralization
BV/TV [2, 9]: raises bone density

MGF D10: SEQ ID NO: 11, Mechano-growth factor with 10 aspartate acids: DDDDDDDDDDYQPPSTNKNTKSQRRKGSTFEEHK (Mechano-growth factor (MGF) D10, an IGF-I fragment)
BV/TV ([2]; 4 weeks, 1 and 10 nmol/day): dose dependent manner

ODP D10: SEQ ID NO: 13, Osteopontin-derived peptide conjugated with 10 aspartate acids (DDDDDDDDDD[mp4″]DVDVPDGRGDSLAYG)
BV/TV ([2]; 4 weeks, 1 nmol/day): healing was reflected as BV/TV

OGP-D10: SEQ ID NO: 2, osteogenic growth peptide conjugated with 10 aspartate acids: DDDDDDDDDDALKRQGRTLYGFGG (OGP D10)
BV/TV ([2]; 2 weeks, 1 and 100 nmol/day): dose dependent manner
TbSp ([2]; 2 weeks, 1 and 100 nmol/day): dose dependent manner
TbTh ([2]; 2 weeks, 1 and 100 nmol/day): dose dependent manner

P3_mp4_(D)E10: SEQ ID NO: 29, P3 fragment of bone sialoprotein followed by a 4 minipeg spacer and 10 (D) glutamic acids (HYESENGEPRGDNYRAYEEEEEEEEEE; 4 minipeg spacer; D-glutamic acids; P3_mp4_e10)
Max load (peak load) [1, 10]: raises bone strength
Work to fracture [1, 10]: raises bone strength
BV (bone volume) [2, 10]: raises bone mineralization
BV/TV [2, 10]: raises bone density

P4 D10: SEQ ID NO: 10, P4 (knuckle epitope fragment of hBMP-2) conjugated with 10 aspartate acids (HKIPKASSVPTELSAISTLYLDDDDDDDDDD; P4 D10-a BMP2 fragment)
BV (bone volume) ([2]; 4 weeks, 1 nmol/day): healing was reflected
BV/TV ([2]; 4 weeks, 1 and 10 nmol/day): dose dependent manner

P-15_(D)E10: SEQ ID NO: 22, P15 collagen fragment conjugated with 10 glutamic acids (HGTPGPQGIAGQRGVV[dE][dE][dE][dE][dE][dE][dE][dE][dE][dE])
Max load (peak load) [1, 8]: raises bone strength
BV/TV [2, 5]: raises bone density

P-15_mp4_(D)E10: SEQ ID NO: 23, a P15 fragment connect via 4 peg2 spacers to (D)E10 bone targeting ligand (HGTPGPQGIAGQRGVVEEEEEEEEEE; 4 PEG2 spacers; D-glutamic acids; P15_mp4_e10)
Max load (peak load) [1, 4]: raises bone strength
Work to fracture [1, 4]: raises bone strength
BV (bone volume) [2, 4]: raises bone mineralization
BV/TV [2, 4]: raises bone density

PHSRN_mp4_(D)E10: SEQ ID NO: 28, fibronectin peptide PHSRN with (D)e10 targeting ligand attached to N terminus via minipeg spacer (H[dE][dE][dE][dE][dE][dE][dE][dE][dE][dE][mp4″]PHSRN)
Max load (peak load) [1, 9]: raises bone strength
Work to fracture [1, 9]: raises bone strength
BV (bone volume) [2, 9]: raises bone mineralization
BV/TV [2, 9]: raises bone density

Preptin D10: SEQ ID NO: 3, Preptin conjugated with 10 aspartate acids (HDVSTSQAVLPDDFPRYDDDDDDDDDD; Preptin D10)
BV (bone volume) [2, 3]: dose dependent manner
BV/TV [2, 3]: dose dependent manner
TbTh [2, 3]: dose dependent manner

VIP D10: SEQ ID NO: 8, Vasoactive intestinal peptide conjugated with D10 (HHSDAVFTDNYTRLRKQMAVKKYLNSILNDDDDDDDDDD; Vasoactive intestinal peptide with D10 (VIP D10))
BV/TV ([2]; 4 weeks, 1 nmol/day): healing was reflected as BV/TV
TbTh ([2]; 4 weeks, 1 nmol/day): healing was reflected

pBMP9 D10: SEQ ID NO: 6, peptide from knuckle epitope of human BMP-9 targeted with D10 (CGGKVGKACCVPTKLSPISVLYK[mp4″]DDDDDDDDDD; cysteine pairing not given here)
BV (bone volume) [2, 7]: dose dependent manner
BV/TV [2, 7]: dose dependent manner
